Data published in ChEMBL document CHEMBL2074136, “Citrus juices inhibit the function of human organic anion-transporting polypeptide OATP-B” (Drug Metab Dispos, 2005).

T1: OATP2B1 (Homo sapiens, UniProt O94956)
T1 sequence (O94956 whole entry): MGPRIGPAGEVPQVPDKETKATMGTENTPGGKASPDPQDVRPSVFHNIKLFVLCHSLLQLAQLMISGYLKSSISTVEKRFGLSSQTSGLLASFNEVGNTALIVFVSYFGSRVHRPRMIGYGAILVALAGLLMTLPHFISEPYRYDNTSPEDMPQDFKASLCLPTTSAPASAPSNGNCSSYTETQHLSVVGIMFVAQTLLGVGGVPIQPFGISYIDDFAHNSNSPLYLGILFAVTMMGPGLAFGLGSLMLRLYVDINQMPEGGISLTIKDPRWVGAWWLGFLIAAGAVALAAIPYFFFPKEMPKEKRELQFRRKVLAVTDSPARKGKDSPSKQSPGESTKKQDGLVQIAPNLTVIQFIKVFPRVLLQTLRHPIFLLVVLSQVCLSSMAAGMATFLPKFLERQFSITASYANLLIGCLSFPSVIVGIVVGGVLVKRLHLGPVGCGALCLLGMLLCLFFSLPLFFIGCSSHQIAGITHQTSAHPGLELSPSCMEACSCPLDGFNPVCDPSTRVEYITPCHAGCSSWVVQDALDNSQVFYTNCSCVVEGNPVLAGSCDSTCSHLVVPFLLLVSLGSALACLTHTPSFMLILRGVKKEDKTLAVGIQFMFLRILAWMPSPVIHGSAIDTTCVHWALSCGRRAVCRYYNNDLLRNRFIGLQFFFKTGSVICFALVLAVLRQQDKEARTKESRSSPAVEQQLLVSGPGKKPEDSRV

T2: Solute carrier organic anion transporter family member 2B1 (Homo sapiens, UniProt O94956)
T2 sequence (O94956 whole entry): T1 sequence (O94956 whole entry)

B1: Solute carrier organic anion transporter family member 2B1 (Homo sapiens) (protein)
chain: T1 sequence (O94956 whole entry)

Experiments:
Type in all cases: functional, cell-based
OATP2B1 = target: T1, OATP2B1; assay: (§1) TP_TRANSPORTER: inhibition of Estrone-3-sulfate uptake (Estrone-3-sulfate: 10nM) in OATP2B1-expressing HEK293 cells; design: scale not given: the % may be the effect or the level left; settings: HEK293 cells expressing OATP2B1, probe Estrone-3-sulfate (10 nM)
[1] = target: T2, Solute carrier organic anion transporter family member 2B1; assay: TP_TRANSPORTER: inhibition of glibenclamide uptake (glibenclamide: 10nM) in OATP2B1-expressing HEK293 cells; design: scale not given: the % may be the effect or the level left
[2] = target: T2, Solute carrier organic anion transporter family member 2B1; assay: TP_TRANSPORTER: uptake of DHEAS at a concentration of 17.4nM in OATP2B1-expressing HEK293 cells
[3] = target: T2, Solute carrier organic anion transporter family member 2B1; assay: as §1; design: scale not given: the % may be the effect or the level left; settings: hek293
[4] = substrate: COc1ccc(Cl)cc1C(=O)NCCc1ccc(S(=O)(=O)NC(=O)NC2CCCCC2)cc1; assay: (§2) TP_TRANSPORTER: uptake in OATP2B1-expressing HEK293 cells
[5] = substrate: C[C@]12CC[C@@H]3c4ccc(OS(=O)(=O)O)cc4CC[C@H]3[C@@H]1CCC2=O; assay: as §2

Molecule	Activity (OATP2B1) [%]	Activity [1]	other results
CC(C)=CCC/C(C)=C/COc1c2ccoc2cc2oc(=O)ccc12 [BERGAMOTTIN]	40	is not an inhibitor [(-)]	
C/C(=C\COc1c2ccoc2cc2oc(=O)ccc12)CCC(O)C(C)(C)O (stereo not drawn) [DIHYDROXYBERGAMOTTIN]	58	35%	
O=C1C[C@@H](c2ccc(O)cc2)Oc2cc(O)cc(O)c21 [NARINGENIN]	72	45%	
C[C@@H]1O[C@@H](O[C@H]2[C@H](Oc3cc(O)c4c(c3)O[C@H](c3ccc(O)cc3)CC4=O)O[C@H](CO)[C@@H](O)[C@@H]2O)[C@H](O)[C@H](O)[C@H]1O [NARINGIN]	61	70%	
COc1ccc(-c2cc(=O)c3c(OC)c(OC)c(OC)c(OC)c3o2)cc1OC [NOBILETIN]	40	58%	
C[C@]12CC[C@H](OS(=O)(=O)O)CC1=CC[C@@H]1[C@@H]2CC[C@]2(C)C(=O)CC[C@@H]12 [PRASTERONE SULFURIC ACID]			Activity [2]: substrate [+]
O=c1c(O)c(-c2ccc(O)c(O)c2)oc2cc(O)cc(O)c12 [QUERCETIN]	80	is not an inhibitor [(-)]	
COc1ccc(-c2cc(=O)c3c(OC)c(OC)c(OC)c(OC)c3o2)cc1 [TANGERETIN]	89	25%	
APPLE JUICE		is not an inhibitor [(-)]	Activity [3]: 89%
GRAPEFRUIT JUICE		38%	Activity [3]: 18%
ORANGE JUICE		50%	Activity [3]: 45%
B1			Km [4]: 6.26 µM; Km [5]: 7.14 µM
